Measured values reported in article PMC9645260, “Small-molecule inhibitors of P-Rex guanine-nucleotide exchange factors” (Small GTPases, 2022).

What was measured:
Assay type in all cases: biochemical
ITSN1 (DHPH) = biological target: T1, ITSN1 (DHPH) (Homo sapiens, UniProt Q15811); test: Liposome-based GEF activity assay, ITSN1; settings: 10 µM, 100 nM ITSN1 DHPH
T1 construct: The ITSN1 DHPH domains and Ect2 DHPH domains, produced in and purified from bacteria; host or cells: bacteria
T1 sequence (Q15811 1229-1580 limits assumed): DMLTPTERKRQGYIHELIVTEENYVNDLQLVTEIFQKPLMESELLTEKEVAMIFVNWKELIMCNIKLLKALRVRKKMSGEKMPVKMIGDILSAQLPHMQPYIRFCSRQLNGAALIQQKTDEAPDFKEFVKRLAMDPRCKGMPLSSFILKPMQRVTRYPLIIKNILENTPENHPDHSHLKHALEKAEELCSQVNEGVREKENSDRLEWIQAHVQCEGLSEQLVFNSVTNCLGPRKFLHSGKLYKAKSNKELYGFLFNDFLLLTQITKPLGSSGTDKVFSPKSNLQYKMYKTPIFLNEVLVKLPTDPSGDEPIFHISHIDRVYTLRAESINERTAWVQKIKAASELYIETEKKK
Description: (§1) Full-length N-terminally EE-tagged P-Rex1, P-Rex2, the P-Rex1 DH and DHPH domains and the P-Rex2 DH domain were produced in Sf9 cells using baculoviral transduction and were purified using anti-EE beads, as previously described. Briefly, frozen pellets from 500 ml of Sf9 culture infected with P-Rex expressing high-titre baculovirus were resuspended in ice-cold lysis Sf9-cell lysis buffer 2 (1x PBS, 1% Triton X-100, 5 mM EGTA, 1 mM EDTA, 25 mM NaF, 20 mM β-glycerophosphate, 1 mM DTT, 100 µM PMSF, 10 μg/ml each of leupeptin, pepstatin A, aprotinin and antipain) for 5 min and then ultracentrifuged at 118,000 × g for 1 h at 4°C. Supernatants were incubated with pre-washed anti-EE beads for 90 min on ice with end-over-end rotation. […] Protein concentration and purity were determined by coomassie staining of SDS-PAGE gels. […]
(§2) Liposome-based GEF activity assays were carried out essentially as described, except that GEFs were incubated with inhibitor compounds prior to the assay. […] Small GTPases were isolated using anti-EE antibody-coupled Sepharose beads or glutathione Sepharose beads, as appropriate, by incubation on ice for 90 min with end-over-end rotation, four washes in ice-cold wash buffer and resuspension of beads in Ultima Gold scintillation fluid (Perkin Elmer). ^35S-GTPγS incorporation was assessed by scintillation counting (Packard 1600TR, Liquid Scintillation Analyser).

Tiam1 (full-length) = biological target: T2, Tiam1 (full-length) (Homo sapiens, UniProt Q13009); test: Liposome-based GEF activity assay, Tiam1; settings: 10 µM, 50 nM full-length Tiam1
T2 construct: Full-length Tiam1, expressed in and purified from Sf9 cells; host or cells: Sf9 cells
T2 sequence (Q13009 whole entry): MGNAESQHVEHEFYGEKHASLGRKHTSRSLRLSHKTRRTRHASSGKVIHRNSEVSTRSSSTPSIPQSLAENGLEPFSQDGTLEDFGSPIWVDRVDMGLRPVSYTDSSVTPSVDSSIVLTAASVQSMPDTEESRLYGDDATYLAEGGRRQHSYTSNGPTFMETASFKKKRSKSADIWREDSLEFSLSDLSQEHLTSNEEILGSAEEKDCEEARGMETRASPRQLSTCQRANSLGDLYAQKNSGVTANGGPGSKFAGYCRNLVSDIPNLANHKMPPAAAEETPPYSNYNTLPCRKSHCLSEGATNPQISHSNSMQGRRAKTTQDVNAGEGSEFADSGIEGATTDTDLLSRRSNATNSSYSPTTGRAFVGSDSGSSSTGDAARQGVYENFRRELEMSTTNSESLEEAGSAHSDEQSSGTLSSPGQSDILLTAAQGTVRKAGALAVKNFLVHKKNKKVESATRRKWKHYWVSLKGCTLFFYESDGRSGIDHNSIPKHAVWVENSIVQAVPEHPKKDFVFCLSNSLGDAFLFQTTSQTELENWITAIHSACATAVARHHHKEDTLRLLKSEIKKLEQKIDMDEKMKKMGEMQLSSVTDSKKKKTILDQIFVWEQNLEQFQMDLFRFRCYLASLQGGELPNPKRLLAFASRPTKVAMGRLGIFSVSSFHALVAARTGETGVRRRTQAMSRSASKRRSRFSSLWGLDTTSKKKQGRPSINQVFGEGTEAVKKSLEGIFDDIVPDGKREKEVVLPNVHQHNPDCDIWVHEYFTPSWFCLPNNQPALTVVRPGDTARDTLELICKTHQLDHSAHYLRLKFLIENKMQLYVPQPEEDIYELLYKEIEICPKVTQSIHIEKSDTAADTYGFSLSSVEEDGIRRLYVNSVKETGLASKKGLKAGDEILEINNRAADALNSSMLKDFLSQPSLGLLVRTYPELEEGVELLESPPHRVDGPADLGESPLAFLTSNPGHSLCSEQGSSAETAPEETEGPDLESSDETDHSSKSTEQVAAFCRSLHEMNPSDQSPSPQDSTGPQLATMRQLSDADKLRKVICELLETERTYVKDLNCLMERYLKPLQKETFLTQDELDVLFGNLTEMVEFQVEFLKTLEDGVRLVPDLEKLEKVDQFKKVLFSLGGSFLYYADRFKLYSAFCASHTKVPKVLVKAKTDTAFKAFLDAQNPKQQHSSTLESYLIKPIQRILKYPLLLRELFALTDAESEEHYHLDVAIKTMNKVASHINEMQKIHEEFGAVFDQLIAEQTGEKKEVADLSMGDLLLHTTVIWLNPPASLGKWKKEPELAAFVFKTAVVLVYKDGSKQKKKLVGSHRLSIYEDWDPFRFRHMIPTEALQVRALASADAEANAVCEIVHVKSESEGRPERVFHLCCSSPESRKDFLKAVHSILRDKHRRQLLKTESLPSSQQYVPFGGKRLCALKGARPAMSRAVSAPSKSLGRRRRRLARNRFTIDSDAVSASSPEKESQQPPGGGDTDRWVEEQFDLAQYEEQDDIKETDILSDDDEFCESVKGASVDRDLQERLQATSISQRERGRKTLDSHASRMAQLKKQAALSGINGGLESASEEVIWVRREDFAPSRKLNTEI
Description: as §1, §2

P-Rex2 DH domain = biological target: T3, P-Rex2 DH domain (Homo sapiens, UniProt Q70Z35); test: Liposome-based GEF activity assay, isolated P-Rex2 DH domain; settings: 200 nM DH domain, read-out: inhibition of constitutive Rac-GEF activity of isolated P-Rex2 DH domain
T3 construct: constitutive Rac-GEF activity of the isolated P-Rex2 DH domain (by 92%); made in house; host or cells: Sf9 cells (baculovirus)
T3 sequence (Q70Z35 23-214 limits assumed): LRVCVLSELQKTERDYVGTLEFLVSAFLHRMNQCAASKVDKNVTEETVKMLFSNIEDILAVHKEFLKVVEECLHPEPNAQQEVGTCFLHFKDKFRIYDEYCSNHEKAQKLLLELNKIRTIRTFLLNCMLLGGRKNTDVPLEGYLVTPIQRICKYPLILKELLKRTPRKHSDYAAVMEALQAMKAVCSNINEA
Description: as §1, §2

Ect2 (DHPH) = biological target: T4, Ect2 (DHPH) (Homo sapiens, UniProt Q9H8V3); test: Liposome-based GEF activity assay, Ect2; settings: 10 µM, 500 nM ECT2 DHPH
T4 construct: The ITSN1 DHPH domains and Ect2 DHPH domains, produced in and purified from bacteria; host or cells: bacteria
T4 sequence (Q9H8V3 452-794 limits assumed): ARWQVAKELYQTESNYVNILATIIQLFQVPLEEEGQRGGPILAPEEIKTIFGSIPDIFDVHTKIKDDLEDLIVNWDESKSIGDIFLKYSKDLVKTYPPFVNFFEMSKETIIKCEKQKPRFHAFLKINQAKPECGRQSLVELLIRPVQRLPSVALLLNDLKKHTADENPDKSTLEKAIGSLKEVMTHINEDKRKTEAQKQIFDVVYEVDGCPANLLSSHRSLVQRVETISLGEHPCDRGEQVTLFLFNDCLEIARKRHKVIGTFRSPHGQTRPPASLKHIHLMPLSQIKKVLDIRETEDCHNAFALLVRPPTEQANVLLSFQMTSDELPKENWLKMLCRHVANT
Description: as §1, §2

COc1ccc(-c2[nH]nc3c2C(c2ccc(-c4ccc(Cl)cc4)o2)C(C#N)=C(N)O3)cc1 (stereo not shown) [PREX-in1, 6-amino-4-[5-(4-chlorophenyl)-2-furyl]-3-(4-methoxyphenyl)-2,4-dihydropyrano[2,3-c]pyrazole-5-carbonitrile]
effect on GEF activity of ITSN1 (ITSN1 (DHPH)): none of the other GEFs were affected
effect on GEF activity of Tiam1 (Tiam1 (full-length)): none of the other GEFs were affected
inhibition at 10 µM (P-Rex2 DH domain): 92%
effect on GEF activity of Ect2 (Ect2 (DHPH)): none of the other GEFs were affected
